{
  "source": "patent US20130183239A1",
  "about": "“ISOTOPIC CARBON CHOLINE ANALOGS” (IMPERIAL COLLEGE, priority 2010, published 2013)",
  "key": {"[1]": {"test_system": "human melanoma SKMEL-28 xenografts", "details": "mouse, in vivo", "method": "Dynamic [^18F]FCH and [^18F]D4-FCH imaging scans were carried out on a dedicated small animal PET scanner, quad-HIDAC (Oxford Positron Systems). The features of this instrument have been described previously (Barthel, H., et al., Cancer Res 2003; 63(13):3791-8). For scanning the tail veins, vehicle- or drug-treated mice were cannulated after induction of anesthesia (isofluorane/O2/N2O). The animals were placed within a thermostatically controlled jig (calibrated to provide a rectal temperature of ˜37° C.) and positioned prone in the scanner. [^18F]FCH or [^18F]D4-FCH (2.96-3.7 MBq) was injected via the tail vein cannula and scanning commenced. Dynamic scans were acquired in list mode format over a 60 min period as reported previously (Leyton, J., et al., Cancer Research 2006; 66(15):7621-9). The acquired data were sorted into 0.5 mm sinogram bins and 19 time frames (0.5×0.5×0.5 mm voxels; 4×15, 4×60, and 11×300 s) for image reconstruction, which was done by filtered back-projection using a two-dimensional Hamming filter (cutoff 0.6). The image data sets were visualized using the Analyze software (version 6.0; Biomedical Imaging Resource, Mayo Clinic). Cumulative images of 30 to 60 min dynamic data were used for visualization of radiotracer uptake and to draw regions of interest. Regions of interest were defined manually on five adjacent tumor regions (each 0.5 mm thickness). Dynamic data from these slices were averaged for each tissue (liver, kidney, muscle, urine, and tumor) and at each of the 19 time points to obtain time versus radioactivity curves. Corresponding whole body time versus radioactivity curves representing injected radioactivity were obtained by adding together radioactivity in all 200×160×160 reconstructed voxels. Tumor radioactivity was normalized to whole-body radioactivity and expressed as percent injected dose per voxel (% ID/vox). The normalized uptake of radiotracer at 60 min (% ID/vox60) was used for subsequent comparisons. The average of the normalized maximum voxel intensity across five slices of tumor % IDvox60max was also use for comparison to account for tumor heterogeneity and existence of necrotic regions in tumor. The area under the curve was calculated as the integral of % ID/vox from 0 to 60 min."}, "[2]": {"details": "mouse, in vivo", "method": "Radiolabeled metabolites from plasma and tissues were quantified using a method adapted from Smith G, Zhao Y, Leyton J, et al. Radiosynthesis and pre-clinical evaluation of [(18)F]fluoro-[1,2-(2)H(4)]choline. Nucl Med Biol. 2011; 38:39-51. Briefly, tumor-bearing mice under terminal anaesthesia were administered a bolus i.v. injection of one of the following radiotracers: ^11C-choline, ^11C-D4-choline (˜18.5 MBq) or ^18F-D4-choline (˜3.7 MBq), and sacrificed by exsanguination via cardiac puncture at 2, 15, 30 or 60 min post radiotracer injection. For automated radiosynthesis methodology, see Example 22. Tumor, kidney and liver samples were immediately snap-frozen in liquid nitrogen. Aliquots of heparinized blood were rapidly centrifuged (14000 g, 5 min, 4° C.) to obtain plasma. Plasma samples were subsequently snap-frozen in liquid nitrogen and kept on dry ice prior to analysis.\nFor analysis, samples were thawed and kept at 4° C. immediately before use. To ice cold plasma (200 μl) was added ice cold methanol (1.5 mL) and the resulting suspension centrifuged (14000 g; 4° C.; 3 min). The supernatant was then decanted and evaporated to dryness on a rotary evaporator (bath temperature, 40° C.), then resuspended in HPLC mobile phase (Solvent A: acetonitrile/water/ethanol/acetic acid/1.0 M ammonium acetate/0.1 M sodium phosphate [800/127/68/2/3/10]; 1.1 mL). Samples were filtered through a hydrophilic syringe filter (0.2 μm filter; Millex PTFE filter, Millipore, Mass., USA) and the sample (˜1 mL) then injected via a 1 mL sample loop onto the HPLC for analysis. Tissues were homogenized in ice-cold methanol (1.5 mL) using an Ultra-Turrax T-25 homogenizer (IKA Werke GmbH and Co. KG, Staufen, Germany) and subsequently treated as per plasma samples.\nSamples were analyzed on an Agilent 1100 series HPLC system (Agilent Technologies, Santa Clara, Calif., USA), configured as described above, using the method of Leyton J, Smith G, Zhao Y, et al. [18F]fluoromethyl-[1, 2-2H4]-choline: a novel radiotracer for imaging choline metabolism in tumors by positron emission tomography. Cancer Res. 2009; 69:7721-7728. A μBondapak C18 HPLC column (Waters, Milford, Mass., USA; […]), stationary phase and a mobile phase comprising of Solvent A (vide supra) and Solvent B (acetonitrile/water/ethanol/acetic acid/1.0 M ammonium acetate/0.1 M sodium phosphate (400/400/68/44/88/10)), delivered at a flow rate of 3 mL/min were used for analyte separation. The gradient was set as follows: 0% B for 5 min; 0% to 100% B in 10 min; 100% B for 0.5 min; 100% to 0% B in 2 min; 0% B for 2.5 min.\nA 2-tissue irreversible compartmental model was employed to fit the TACs, as has been previously established for ^11C-choline (Kenny L M, Contractor K B, Hinz R, et al. Reproducibility of [11C]choline-positron emission tomography and effect of trastuzumab. Clin Cancer Res. Aug. 15 2010; 16(16):4236-4245; and Sutinen E, Nurmi M, Roivainen A, et al. Kinetics of [(11)C]choline uptake in prostate cancer: a PET study. Eur J Nucl Med Mol. Imaging. March 2004; 31(3):317-324). An estimate of the whole blood TAC (wbTAC(t)) was derived from the PET image itself, as described above. […] Therefore it was fitted with a sum of 3 exponentials from the peak on and the fitted function was used as input function in the kinetic modeling (after metabolite correction, see below). […] The pf values were fitted to a sum of two exponentials with the constraint pf(t=0)=1 to obtain the function pf(t)."}},
  "data": [
    {"molecule": "[2H]C([2H])(O)C([2H])([2H])[N+](C)(C)C[18F]", "note": "[[^18F]D4-FCH, [^18F]fluoromethyl-[1,2-^2H4]-choline]", "values": [
      {"measurement": "% IDvox60max (average of maximum pixel % ID/vox60 across 5 slices)", "setting": "[1]", "result": "significantly higher"},
      {"measurement": "tumor area under the time versus radioactivity curve (AUC)", "setting": "[1]", "result": "higher"},
      {"measurement": "liver radioactivity as betaine", "setting": "[2]", "result": "15.0±3.6", "unit": "%"},
      {"measurement": "liver radioactivity present as phosphocholine", "setting": "[2]", "result": "~80", "unit": "%"},
      {"measurement": "plasma radioactivity in the form of betaine", "setting": "[2]", "result": "43.7±12.4", "unit": "%"},
      {"measurement": "resistance to oxidation in the kidney", "setting": "[2]", "result": "more resistant to oxidation"}
    ]}
  ]
}
